Reference: US4259332A, “Novel taurine derivatives” (priority 1979, dated 1981)

How the values were obtained:
[1] = Curative effect on intoxication by CCl4; assay type: in vivo, rat; details: 100 mg/kg endoperitoneal 1 h after CCl4; BSF tested after 4 hours
Protocol: Oral administration to rats of 10 ml/kg of a 10% solution of CCl4 in oil was followed with endoperitoneal administration of 100 mg/kg of Compound B after 1 hour. BSF (50 mg/kg i.v.) in the blood was tested after 4 hours. 5 Animals were used per group, and expressed as percentage change with respect to the control, the Compound B gave a reduction of -34.2.

[2] = Toxicology, oral treatment of mice for 180 days, Compound B; assay type: in vivo, mouse; details: 200 mg/kg orally
[3] = Intoxication by CCl4 and curative treatment; assay type: in vivo; details: 100 mg/kg endoperitoneal on days 1, 2 and 3
Protocol: On the first day there was oral administration of 10 ml/kg of a 10% solution of CCl4 in oil and simultaneous endoperitoneal administration of 100 mg/kg of Compound B. On the second and third days, there was endoperitoneal administration of 100 mg/kg of Compound B, then testing of BSF (50 mg/kg i.v.) in the blood.
5 Animals were used per group, and expressed as pecentage variation with respect to the control, there was a reduction by Compound B of 16.1.

[4] = Antilipemic action, Morris, Handler or Nath diet, Compound B; assay type: in vivo, Wistar rat; details: for Bile BSF, percentage change vs control / Liver total lipids, percentage change vs control / Serum total cholesterol, percentage change vs control / Serum total lipids, percentage change vs control / Liver fresh organic weight, percentage change vs control / Serum beta-lipoproteins, percentage change vs control: 45 days, 200 mg/kg orally
Protocol: Wistar rats were treated for 45 days with a Morris diet, a Handler diet or a Nath diet. Simultaneously with the diet they received each day 200 mg/kg of Compound B or choline (except for the Nath diet) orally.

[5] = Protection against hepatic intoxication by CCl4 and cold, Compound B (BSF in blood); assay type: in vivo; details: 500 mg/kg endoperitoneal
Protocol: Oral administration of 5 ml/kg of a 20% solution of CCl4 in oil, with simultaneous endoperitoneal administration of 500 mg/kg of Compound B, was followed by exposure for 5 hours at 4° C. BSF in the blood (30 mg/kg i.v.) was tested. A comparison product, homocysteinethiolactone (OCT) was employed.
10 Animals were treated per group, and the results expressed as percentage change with respect to the controls were as shown in Table 4.

[6] = BSF bile excretion after CCl4; assay type: in vivo, rat; details: 100 mg/kg endoperitoneal 4 days, CCl4 10% 10 ml/kg
Protocol: Endoperitoneal administration to rats of 100 mg/kg of Compound B for 4 days was followed on the fourth day, one hour after the last administration, with the rats receiving 10 ml/kg orally of a 10% solution of CCl4 in oil. BSF (5 mg/kg) in the bile was tested.

SMILES: COc1cc(C(=O)OCCN(CCOC(=O)c2cc(OC)c(OC)c(OC)c2)CCS(=O)(=O)O)cc(OC)c1OC [Compound B, N,N-di-[2-(3,4,5-trimethoxybenzoyloxy)ethyl]taurine]
- BSF in the blood, percentage change vs control (reduction) [1]: -34.2%
- Mortality [2]: No mortality occurred
- BSF in the blood, percentage variation vs control (reduction) [3]: 16.1%
- Bile BSF, percentage change vs control ([4]; Handler diet, B and Choline): +23.4%
- Liver total lipids, percentage change vs control ([4]; Handler diet, B and Choline): -29.1%
- Serum total cholesterol, percentage change vs control ([4]; Handler diet, B and Choline): -7.3%
- Serum total lipids, percentage change vs control ([4]; Handler diet, B and Choline): +9.1%
- Liver fresh organic weight, percentage change vs control ([4]; Handler diet, second B column): -13.3%
- Liver fresh organic weight, percentage change vs control ([4]; Handler diet): -24.9%
- Liver total lipids, percentage change vs control ([4]; Handler diet): -37.7%
- Serum total cholesterol, percentage change vs control ([4]; Handler diet): -6.3%
- Serum total lipids, percentage change vs control ([4]; Handler diet): -15.9%
- Bile BSF, percentage change vs control ([4]; Morris diet): +23.8%
- Liver total lipids, percentage change vs control ([4]; Morris diet): -11.5%
- Serum beta-lipoproteins, percentage change vs control ([4]; Morris diet): -23.7%
- Serum total cholesterol, percentage change vs control ([4]; Morris diet): -23.2%
- Serum total lipids, percentage change vs control ([4]; Morris diet): -22.4%
- Liver total lipids, percentage change vs control ([4]; Nath diet): -23.4%
- Serum beta-lipoproteins, percentage change vs control ([4]; Nath diet): -29.7%
- Serum total cholesterol, percentage change vs control ([4]; Nath diet): -35.2%
- Serum total lipids, percentage change vs control ([4]; Nath diet): -20.6%
- Oral absorption (deduced from diet tests) ([4]; oral, powder with the diet): good oral absorption
- Hepatic intoxication protection, percentage change of BSF in blood vs controls ([5]; test number 1): -27.5%
- Hepatic intoxication protection, percentage change of BSF in blood vs controls ([5]; test number 2): -17.0%
- BSF bile excretion, percentage of excretion ([6]; 30 min.): 44.1%
- BSF bile excretion, percentage of excretion ([6]; 60 min.): 50.9%
